From patent EP0804408B1, “NOVEL 4-SUBSTITUTED 2,6-DI-TERT-BUTYLPHENOL COMPOUNDS, PHARMACEUTICAL COMPOSITIONS CONTAINING SAME AND PREPARATION METHOD THEREFOR” (priority 1994, dated 1996)

System: NO-synthase inductible (iNOS)
Assay: iNOS induction test: nitrites in RAW264.7 supernatants by Griess reaction after nitrate reduction
Assay type: cell-based, murins
Conditions: IFNγ + LPS
Text: Cette hypothèse a été contrôlée en dosant les nitrites dans des surnageants de culture de macrophages murins de lignées activées en présence de AVF1. Les nitrites ont été dosés par la réaction de Griess après réduction de tous le nitrates grâce à la nitrate réductase de Pseudomonas oleoverans (Granger et al., J. Immunol., 1991, 146, 1294-1302). La spécificité de la réaction a été prouvée par l'emploi d'un inhibiteur spécifique de la synthèse du monoxyde d'azote, la N^G-monométhyl-L-arginine (L-NMMA).
Le test d'induction iNOS consiste à ensemencer les macrophages RAW264.7 dans des plaques à 24 puits à raison de 1 x 10^6 sous 1,6 ml. Après 24 heures de culture permettant d'obtenir un tapis cellulaire complet, AVF1, dilué de raison 10 dans des des doses ne donnant pas de toxicité cellulaire (de 10^-6 à 10^-8 %), est ajouté dans 100 µl par cupule soit sur des macrophages sans activateur, avec ou sans l'inhibiteur de iNOS (action directe du produit sur les macrophages) soit en présence des inducteurs, avec ou sans inhibiteur (action du produit sur des macrophages activés).
Après 24 heures de culture, les surnageants sont prélevés, centrifugés 10 minutes à 100 g à température ambiantes pour éliminer les éventuels débris cellulaires puis utilisés pour le dosage des nitrites.
Deux volumes des surnageants clarifiés sont réduits en présence d'un volume d'une suspension de Pseudomonas oleovorans à 100 mg/ml et un volume de D-MEM sans rouge de phénol. Après une incubation de 90 minutes à 37°C sans agitation, les mélanges sont centrifugés 5 minutes à 4 000 g pour éliminer les bactéries et dilués au 1/5 et au 1/10 en eau distillée stérile.
100 µl des échantillons réduits et dilués sont distribués dans des séries de 2 puits dans une plaque ELISA (maxicorp, Nunc.). 200 µl du réactif de Griess (mélange ex-temporané volume à volume des solutions de sulfamide à 1,5 g/100 ml de HCl 1,2 N (87,1 mM) - réactif A - et de naphtylènediamine à 0,15 g/100 ml d'eau stérile (5,78 mM) - réactif B -) sont ajoutés.
Cent autres µl d'échantillon servant de blanc de DO sont distribués et mélangés à 200 µl d'un mélange ex-temporané volume à volume d'eau distillée et du réactif colorimétrique A.
Après 30 minutes à température ambiante à l'obscurité, la densité optique (DO) des échantillons est lue à 540 nm au lecteur de plaque pour ELISA.
• Les contrôles du système d'induction iNOS sont composés de : • . Témoin cellules consistant en des macrophages ne recevant que du milieu de culture. • . Témoin d'induction consistant en des macrophages traités par 100 µl de lipopolysaccharide (LPS à 4 µg/ml, Difco) et par 100 µl d'interféron-γ recombinant (IFN-γ à 1 µU/ml, Boerhinger-Mannheim) afin d'activer la iNOS (Schmidt et al., Mol. Pharmacol., 1992, 41, 614-624). Les solutions mères de LPS et de IFN-γont été conservées respectivement à +4°C et à -20°C avant utilisation. • . Témoin d'inhibition spécifique pour prouver que les nitrites dosés proviennent de l'activation de la iNOS. Il consiste à incorporer à la culture un inhibiteur spécifique, la L-NMMA (N^G-monométhyl-L-arginine, Calbiochem) (Hibbs et al., Science, 1987, 235, 473-476) à des concentrations de raison 10 allant de 3 à 300 µM. Cette solution a été conservée sous parties aliquotes à -20°C avant utilisation. • Les contrôles de la réaction de Greiss sont composés de : • . Une solution de nitrate de sodium qui permet de contrôler l'activité nitrate-réductase des bactéries. • . Une gamme étalon de nitrite de sodium qui permet de doser les nitrites dans les échantillons. • Le blanc de DO de la gamme étalon contenant 100 µl d'eau distillée et 200 µl du mélange des réactifs A et B.

[1] = L-NMMA (300 µM) alone (no AVF1)

Structure (SMILES): CNC(=N)NCCC[C@H](N)C(=O)O [L-NMMA, N^G-monométhyl-L-arginine, reference compound]
- Concentration moyenne en nitrites en µM sur 2 échantillons (L-NMMA (3 µM) alone (no AVF1)): 20,9 µM
- Pourcentage d'inhibition de la production de nitrite (L-NMMA (3 µM) alone (no AVF1)): 0%
- Concentration moyenne en nitrites en µM sur 2 échantillons (L-NMMA (30 µM) alone (no AVF1)): 14,7 µM
- Pourcentage d'inhibition de la production de nitrite (L-NMMA (30 µM) alone (no AVF1)): 29%
- Concentration moyenne en nitrites en µM sur 2 échantillons [1]: 9,3 µM
- Pourcentage d'inhibition de la production de nitrite [1]: 55%
